Holding throughout (assay type): cell-based
The test system of one experiment is bladder cancer models. The experiment can be described thus: 3D clonogenic assay, Example 2, bladder cancer models. Conditions: n=6 models. As for the experimental part: (§1) The present study investigated plinabulin for anticancer activity ex vivo in 68 out of 71 originally planned patient-derived xenograft (PDX) models representing major cancer types. Experiments were performed using a 3D clonogenic assay in a 96-well format with colony count based on image analysis as a read-out. By using this assay, the investigational compound was assessed for the ability to inhibit anchorage independent growth and ex vivo colony formation of tumor cells in semi-solid medium.
(§2) A master stock solution of plinabulin was prepared by dissolving the compound in DMSO at a concentration of 9.9 mM. Working stock solutions were prepared by diluting the master stock solution with DMSO to a concentration of 0.99 mM (330-fold the highest test concentration). Small aliquots of the master and working stock were stored at −20° C. […]
(§3) Plinabulin was investigated in 68 PDX models representing a number of cancer types. […] The percentage of viable cells was determined in a Neubauer-hemocytometer using trypan blue exclusion. […]
(§4) The clonogenic assay was carried out in a 96 well plate format using ultra low attachment plates. […] Cultures were incubated at 37° C. and 7.5% CO2 in a humidified atmosphere 13 days in total and monitored closely for colony growth using an inverted microscope. […]

For experiment [1], the system named is soft tissue sarcoma models. The experiment can be described thus: 3D clonogenic assay, Example 2, soft tissue sarcoma models. The conditions noted are these: n=8 models. As for the experimental part:
as §1, §2, §3, §4

The test system of experiment [2] is (Asian) gastric cancer model GXA 3067. The experiment is described as follows: 3D clonogenic assay, Example 2, GXA 3067. Conditions: read-out: abs. IC50. As for the experimental part:
as §1, §2, §3, §4

These results are taken from patent US20240408082A1, “METHODS FOR TREATING CANCERS AND TUMORS” (BEYONDSPRING PHARMACEUTICALS, INC., priority 2021, published 2024).

Where only a bound is given, the exact number is not on record here.

A word on the IC50: it is the midpoint of a concentration-inhibition curve. Consider `CC(C)(C)c1[nH]cnc1/C=c1\[nH]c(=O)/c(=C/c2ccccc2)[nH]c1=O` [plinabulin, (3Z,6Z)-3-Benzylidene-6-{[5-(2-methyl-2-propanyl)-1H-imidazol-4-yl]methylene}-2,5-piperazinedione], for which the “geometric mean absolute IC70” value (with bladder cancer models; in experiment [1]) was over 3000 nM throughout. The concentration for half-maximal inhibition (IC50) worked out at 2580 nM in experiment [1] (read-out: geom. mean abs. IC50) and 26 nM in experiment [2].
